Results on 56 molecules are retold here after PubChem BioAssay AID1645862 (Buhrlage Lab, Dana-Farber Cancer Institute and Novartis …, 2021).

Calls of active or inactive are those of the source. No rule for the calls is given here. A value given as a limit tells only on which side of the number the result lay.

Sequence of Ubiquitin carboxyl-terminal hydrolase 8 (Homo sapiens) (P40818 whole entry, looked up): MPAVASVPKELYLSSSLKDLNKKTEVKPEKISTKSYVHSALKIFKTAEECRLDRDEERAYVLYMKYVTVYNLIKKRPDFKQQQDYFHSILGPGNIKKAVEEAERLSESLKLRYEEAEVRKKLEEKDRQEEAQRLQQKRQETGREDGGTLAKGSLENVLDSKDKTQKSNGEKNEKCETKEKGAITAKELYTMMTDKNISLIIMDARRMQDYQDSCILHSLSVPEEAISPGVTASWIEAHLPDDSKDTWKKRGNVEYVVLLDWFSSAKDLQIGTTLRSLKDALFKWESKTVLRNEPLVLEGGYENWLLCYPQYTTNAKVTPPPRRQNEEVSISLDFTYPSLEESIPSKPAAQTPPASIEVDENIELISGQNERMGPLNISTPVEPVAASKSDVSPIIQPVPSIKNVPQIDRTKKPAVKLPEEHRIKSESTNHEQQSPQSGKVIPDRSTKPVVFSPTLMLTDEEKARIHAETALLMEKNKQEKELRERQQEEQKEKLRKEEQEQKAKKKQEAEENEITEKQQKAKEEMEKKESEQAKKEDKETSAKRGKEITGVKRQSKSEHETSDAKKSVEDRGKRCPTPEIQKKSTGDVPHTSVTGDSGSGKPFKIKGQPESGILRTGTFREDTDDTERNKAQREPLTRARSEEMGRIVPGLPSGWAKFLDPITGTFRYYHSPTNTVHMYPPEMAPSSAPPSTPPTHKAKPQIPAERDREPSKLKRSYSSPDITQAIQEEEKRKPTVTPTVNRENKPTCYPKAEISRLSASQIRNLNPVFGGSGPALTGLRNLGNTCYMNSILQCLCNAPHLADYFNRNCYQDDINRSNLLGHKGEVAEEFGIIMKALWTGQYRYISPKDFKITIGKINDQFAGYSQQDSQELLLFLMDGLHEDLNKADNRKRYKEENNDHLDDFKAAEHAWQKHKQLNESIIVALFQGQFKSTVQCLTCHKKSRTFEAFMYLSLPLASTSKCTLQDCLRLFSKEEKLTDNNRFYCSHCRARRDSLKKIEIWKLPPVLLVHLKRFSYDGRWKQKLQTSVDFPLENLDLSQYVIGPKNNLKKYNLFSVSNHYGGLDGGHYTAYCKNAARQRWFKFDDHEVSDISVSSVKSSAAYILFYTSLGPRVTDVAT

This assay concerns the target Ubiquitin carboxyl-terminal hydrolase 8 (Homo sapiens) (UniProt P40818). In words: Ubiquitin-specific protease 8 inhibitors, concentration-effect, biochemical, validation of initial actives (AID 1645862).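 Also: potency reflects inhibition of USP8 cleavage of a ubiquitin rhodamine substrate.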 To be noted: recombinant USP8 deubiquitinase activity assay.
Regarding `O=C(/C=C/c1ccc(F)cc1)N1CCc2ccccc2C1`, the IC50 was 26 µM.

Take `Cc1cc(=O)n2c3c(c4c(cc13)c(CO)cc(=O)n4C)OC2`: the IC50 was 22.6 µM.

As to `O=C(Cn1c(=O)[nH]c2ccccc2c1=O)NCc1ccccc1Cl`, the IC50 was > 40 µM (inactive).

For the molecule `COc1ccc(-c2noc([C@@H]3C[C@H](NC(=O)Nc4ccc(C)cc4)CN3C)n2)cc1`, the IC50 was > 40 µM (inactive).

Regarding `Cc1nnc2ccc(-c3ccc(NC(=O)c4ccc(Br)o4)cc3)nn12`, the IC50 was > 40 µM (inactive).

As to `Cc1cccc(NC(=O)CCCc2nnc3c(=O)n(-c4cccc(F)c4)ccn23)c1`, the IC50 was > 40 µM (inactive).

Consider `COc1ccc(CCC(=O)Nc2nnc(C3CC(=O)N(c4ccccc4)C3)s2)cc1` (stereo unspecified), for which the IC50 was > 40 µM (inactive).

As to `O=C(c1[nH]nc2c1COc1ccccc1-2)N1CCN(c2ccccn2)CC1`, the IC50 was > 40 µM (inactive).

With `O=C(Nc1ccccc1-c1nc(-c2ccccn2)no1)c1cc(Cl)ccc1Cl`, the IC50 is > 40 µM (inactive).

For `N#Cc1ccc(NC(=O)Nc2cccn(Cc3ccc(F)cc3)c2=O)cc1`, the IC50 was > 40 µM (inactive).

For the molecule `COc1ccccc1NC(=O)c1nc(-c2cn(-c3cccc(F)c3)nn2)no1`, the IC50 is > 40 µM (inactive).

Consider `Cc1ccc(CNC(=O)CCCn2c(=O)c3sccc3n(CC(=O)OCc3ccccc3)c2=O)cc1`, for which the IC50 was > 40 µM (inactive).

Regarding `COc1cccc(-c2cc(C(=O)Nc3cc(C)n(Cc4ccc(Cl)cc4)n3)no2)c1`, the IC50 is > 40 µM (inactive).

Consider `CCCCCCCc1cc(OC(=O)c2c(CCCCCCC)cc(O)cc2O[C@@H]2O[C@H](CO)[C@@H](O)[C@H](O)[C@H]2O)cc(O)c1C(=O)O`, for which the half-maximal inhibitory concentration (IC50) is 8.09 µM.

With `COc1cccc(Cn2cnc3c(NS(=O)(=O)c4ccc(Cl)cc4)c(C)c(C)cc32)c1`, the IC50 was > 40 µM (inactive).

Consider `Cc1nc2nc(C(c3ccccc3)c3ccccc3)[nH]n2c(=O)c1Cc1ccccc1`, for which the IC50 is > 40 µM (inactive).

Regarding `Cc1ccc2c(c1)c(=O)c(C(=O)c1ccccc1)cn2CC(=O)Nc1ccccc1`, the IC50 was 27.5 µM.

Regarding `Cc1ccc(C(=O)NCc2ccc(C(=O)Nc3ccc(Cl)cc3)o2)cc1`, the IC50 is > 40 µM (inactive).

Consider `COc1cc(NC(=O)Cc2ccccc2)ccc1NC(=O)c1cc2ccccc2o1`, for which the IC50 is > 40 µM (inactive).

Turning to `COc1ccc(-c2n[nH]n3c2nc(=O)c2ccc(C(=O)NCc4ccco4)cc23)cc1`, the IC50 was > 40 µM (inactive).

Consider `CCOc1ccc2[nH]c(=O)c(-c3nc4ccc(C)cn4c3NCc3ccccc3)cc2c1`, for which the IC50 is > 40 µM (inactive).

Consider `O=C(Nc1ccccc1-c1nc2ccccc2[nH]1)c1sc2ccccc2c1Cl`, for which the half-maximal inhibitory concentration (IC50) is 10.5 µM.

Turning to `CCn1cc2c(n1)c(=O)n(Cc1ccccc1)c(=O)n2CC(=O)Nc1ccc(C)cc1C`, the IC50 was 24.4 µM.

In the case of `COc1ccc(C(=O)CSc2nnc(-c3cc4ccccc4o3)n2C)cc1`, the IC50 is > 40 µM (inactive).

For the molecule `Cc1ccc2c(c1)c(=O)c(C(=O)c1ccccc1)cn2CC(=O)Nc1ccc2c(c1)OCCO2`, the IC50 was > 40 µM (inactive).

Regarding `CSc1ccc(CNC(=O)Cn2c(=O)[nH]c3c(-c4ccccc4)c[nH]c3c2=O)cc1`, the IC50 was > 40 µM (inactive).

As for `CCOc1ccc(-c2ccc3nnc(SCC(=O)Nc4ccc(F)cc4)n3n2)cc1`, the IC50 was > 40 µM (inactive).

For the molecule `COc1ccc(NC(=O)CNC(=O)c2ccc3nc(-n4cccc4)sc3c2)cc1`, the IC50 was > 40 µM (inactive).

On to `CC(=O)c1cccc(NC(=O)COC(=O)c2sc3cc(F)ccc3c2Cl)c1`, for which the IC50 was > 40 µM (inactive).

Take `COc1cc(C(=O)Nc2ccc(C#N)cc2)ccc1OCC(=O)Nc1ccccc1C(F)(F)F`: the IC50 was > 40 µM (inactive).

Regarding `COc1ccc(N2CC(c3nnc(NC(=O)CCc4ccccc4)s3)CC2=O)cc1` (stereo unspecified), the IC50 was > 40 µM (inactive).

As to `CC(=O)CSc1nc2sc3c(c2c(=O)n1-c1ccccc1)CCCC3`, the IC50 is > 40 µM (inactive).

For the molecule `Cc1ccc(NC(=O)CSc2nnc(-c3n[nH]c4c3CCC4)n2N)cc1C`, the IC50 is > 40 µM (inactive).

For the molecule `Cn1nc(Cl)c(Cl)c1Oc1ccc(S(=O)(=O)Nc2ccc(Oc3ccc(C(F)(F)F)cn3)c(Cl)c2)cc1`, the IC50 was > 40 µM (inactive).

`Cc1noc(C)c1COc1cccc(C(=O)Nc2cc(Cl)ccc2-n2cncn2)c1`: the IC50 is > 40 µM (inactive).

Turning to `CCOc1ccc(NS(=O)(=O)c2ccc(NC(=O)Nc3ccccc3)cc2)cc1`, the IC50 was > 40 µM (inactive).

`O=C(Cn1c(=O)n(Cc2ccccc2)c(=O)c2ncccc21)NCc1ccccc1Cl`: the IC50 was > 40 µM (inactive).

`Cc1cc(-c2nnc(SCC(=O)Nc3ccc(Br)c(C)c3)n2N)n[nH]1`: the IC50 was > 40 µM (inactive).

As for `Cc1ccnc(NS(=O)(=O)c2ccc(NC(=O)c3ccc(S(=O)(=O)N(C)Cc4ccccc4)cc3)cc2)n1`, the IC50 was > 40 µM (inactive).

Regarding `O=C(Nc1cccc(C(F)(F)F)c1)c1cc2c(s1)-c1ccccc1OC2`, the IC50 was > 40 µM (inactive).

As for `O=C(CNC(=O)c1ccc2nc(-n3cccc3)sc2c1)NCc1cccc(Cl)c1`, the IC50 was > 40 µM (inactive).

As to `Cc1ccc(NC(=O)Cn2cnc3c(c(C)c(C)n3-c3ccccc3)c2=O)c(C)c1`, the IC50 was > 40 µM (inactive).

Regarding `COc1ccc([C@H]2Oc3cc(OC)cc(O)c3C(=O)[C@@H]2[C@@H]2C(=O)c3c(O)cc(O)cc3O[C@H]2c2ccc(OC)cc2)cc1`, the IC50 is > 40 µM (inactive).

Turning to `O=C(Cn1c(=O)c2ccccc2n(CC(=O)Nc2cc(Cl)cc(Cl)c2)c1=O)NCc1ccco1`, the IC50 was > 40 µM (inactive).

As for `Nc1c(-c2ccc(Cl)cc2)cnc2cc(-c3ccc(Cl)c(Cl)c3)nn12`, the IC50 is > 40 µM (inactive).

As to `Cc1nnc(-c2ccc3ccn(CC(=O)N4CCN(c5ccccc5)CC4)c3c2)o1`, the IC50 is > 40 µM (inactive).

With `Cc1ccc(C(=O)O)cc1NC(=O)C(Sc1cccc(NC(=O)c2cccc(Cl)c2)c1)c1ccccc1` (stereo unspecified), the IC50 was > 40 µM (inactive).

Take `Cc1ccc(NC(=O)COc2ccccc2/C=C2/NC(=O)N(Cc3ccc(F)cc3)C2=O)cc1`: the IC50 is > 40 µM (inactive).

For the molecule `CCCC[C@@H](C)/C=C(C)/C=C(\C)C(=O)NC1=C[C@](O)(/C=C/C=C/C=C/C(=O)NC2=C(O)CCC2=O)[C@@H]2O[C@@H]2C1=O`, the IC50 is > 40 µM (inactive).

As for `COc1cc2c(=O)n(CC3CCCO3)c(=O)n(CC(=O)c3ccc4c(c3)OCO4)c2cc1OC` (stereo unspecified), the IC50 is > 40 µM (inactive).

Consider `O=S1(=O)CCN(Cc2c(F)cccc2F)c2c(F)nc(N3CCOCC3)c(F)c21`, for which the IC50 is > 40 µM (inactive).

`O=c1[nH]c(C2CCN(S(=O)(=O)c3ccc(S(=O)(=O)NC4CCCCC4)cc3)CC2)nc2c1nnn2Cc1c(Cl)cccc1Cl`: the IC50 was > 40 µM (inactive).

As to `Cn1nc(C(=O)N2CCC(c3ccccc3)C2)c2c1-c1ccsc1CC2` (stereo unspecified), the half-inhibitory concentration (IC50) was 38.4 µM.

In the case of `CC1=C(C)C(N(c2ccccc2)c2ccccc2)N(CCC(C)C)C1=O` (stereo unspecified), the IC50 is 37.7 µM.

Take `CCc1ccc(-n2c(C)cc(/C=C3\C(=N)N4N=CSC4=NC3=O)c2C)cc1`: the IC50 is > 40 µM (inactive).

On to `O=c1cc(-c2ccc(O)c(O)c2)oc2cc(O)cc(O)c12`, for which the half-maximal inhibitory concentration (IC50) is 2.07 µM.

One may read the IC50 as the concentration needed to halve the response being measured.
